This is an account of results in the NIST ThermoML archive (doi:10.1016/j.jct.2006.08.007).

SMILES strings stand for the structures. Numbers after ± are expanded uncertainties.

The nature of the data set: xn = mol fraction of the nth substance listed. The note with it: 279.15 K, 101 kPa, Liquid.

In the case of `C1CCOC1` [tetrahydrofuran] + O, the mass density runs as follows: (x1 = 0.046) 996.6 ± 5.9 kg/m3; (x1 = 0.086) 994.4 ± 5.9 kg/m3; (x1 = 0.19) 979 ± 6.2 kg/m3; (x1 = 0.33) 970.5 ± 6.7 kg/m3; (x1 = 0.54) 934 ± 7.4 kg/m3; (x1 = 0.74) 919.2 ± 8.6 kg/m3. Besides, the speed of sound by setting is: (x1 = 0.046) 1571.5 ± 13 m/s; (x1 = 0.086) 1610.7 ± 13 m/s; (x1 = 0.19) 1554 ± 13 m/s; (x1 = 0.33) 1474.2 ± 12 m/s; (x1 = 0.54) 1420.7 ± 12 m/s; (x1 = 0.74) 1396.7 ± 12 m/s.

`CN(C)C=O` [dimethylformamide] + O: the mass density by setting is: (x1 = 0.023) 1000.9 ± 3.2 kg/m3; (x1 = 0.0485) 1002.9 ± 3.2 kg/m3; (x1 = 0.0714) 1005.2 ± 3.3 kg/m3; (x1 = 0.0972) 1007.3 ± 3.4 kg/m3; (x1 = 0.2457) 1009.7 ± 3.9 kg/m3; (x1 = 0.3865) 1002.2 ± 4.5 kg/m3. For the same compound, the mass density (x1 = 0.5924) worked out at 986.6 ± 5.7 kg/m3 and the mass density (x1 = 0.844) is given as 970 ± 7.6 kg/m3. For the same compound, the speed of sound was 1511.6 ± 13 m/s (x1 = 0.023); 1578.6 ± 13 m/s (x1 = 0.0485); 1625 ± 13 m/s (x1 = 0.0714); 1664.6 ± 14 m/s (x1 = 0.0972); 1748 ± 14 m/s (x1 = 0.2457); 1714.6 ± 14 m/s (x1 = 0.3865). The speed of sound by setting is: (x1 = 0.5924) 1646 ± 14 m/s; (x1 = 0.844) 1564 ± 14 m/s.

Turning to `O` [water] + CN(C)C=O, under “x2 = 0”, the mass density is 999.9 ± 3.1 kg/m3 and the speed of sound worked out at 1430.4 ± 12 m/s.

As for `CC#N` [acetonitrile] + O, the mass density is reported as 986.6 ± 3.2 kg/m3 (x1 = 0.053); 974.3 ± 3.2 kg/m3 (x1 = 0.091); 955.5 ± 3.3 kg/m3 (x1 = 0.146); 941.9 ± 3.3 kg/m3 (x1 = 0.187); 909.5 ± 3.6 kg/m3 (x1 = 0.296); 888.4 ± 3.8 kg/m3 (x1 = 0.376). For the same compound, the mass density is, setting by setting: (x1 = 0.518) 859 ± 4.2 kg/m3; (x1 = 0.692) 831.5 ± 4.9 kg/m3; (x1 = 0.889) 807.2 ± 5.9 kg/m3. The speed of sound (x1 = 0.053) is listed as 1540 ± 13 m/s; the speed of sound (x1 = 0.091) is recorded as 1549.6 ± 13 m/s; the speed of sound (x1 = 0.146) stood at 1511.8 ± 13 m/s; the speed of sound (x1 = 0.187) is given as 1476.2 ± 12 m/s; the speed of sound (x1 = 0.296) is given as 1451 ± 12 m/s; the speed of sound (x1 = 0.376) is 1425 ± 12 m/s. The speed of sound (x1 = 0.518) was 1387.2 ± 12 m/s, the speed of sound (x1 = 0.692) worked out at 1352 ± 12 m/s and the speed of sound (x1 = 0.889) stood at 1321 ± 12 m/s.

As to `O` [water] + C1CCOC1, for the setting “x2 = 0”, the mass density was found to be 999.9 ± 5.8 kg/m3 and the speed of sound is on record as 1433 ± 12 m/s.

In the case of `O` [water] + CC#N, for the setting “x2 = 0”, the mass density amounted to 999.9 ± 3.1 kg/m3 and the speed of sound is given as 1430.4 ± 12 m/s.

With `C1COCCO1` [1,4-dioxane] + O, the mass density is, setting by setting: (x1 = 0.018) 1008.9 ± 3.2 kg/m3; (x1 = 0.048) 1021 ± 3.3 kg/m3; (x1 = 0.077) 1031.1 ± 3.4 kg/m3; (x1 = 0.096) 1035.1 ± 3.5 kg/m3; (x1 = 0.24) 1051.2 ± 4.1 kg/m3; (x1 = 0.387) 1052.8 ± 4.9 kg/m3. In addition, the mass density (x1 = 0.595) stood at 1051.7 ± 6.3 kg/m3. Further, the speed of sound (x1 = 0.018) is on record as 1490 ± 12 m/s; the speed of sound (x1 = 0.048) was 1544.4 ± 13 m/s; the speed of sound (x1 = 0.077) is reported as 1580 ± 13 m/s; the speed of sound (x1 = 0.096) is on record as 1590.4 ± 13 m/s; the speed of sound (x1 = 0.24) turned out to be 1587.6 ± 13 m/s; the speed of sound (x1 = 0.387) turned out to be 1531.6 ± 13 m/s. For the same compound, the speed of sound (x1 = 0.595) is listed as 1479.4 ± 13 m/s.

For the compound `O` [water] + C1COCCO1, for the setting “x2 = 0”, the mass density worked out at 999.9 ± 3.1 kg/m3 and the speed of sound is given as 1430.4 ± 12 m/s.
